Values of other authors in US20240398817A1, “CARDIO- AND RENOSAFE ANTIDIABETIC THERAPY” (priority 2018, published 2024).
Like-named read-outs stand apart in the source and are kept apart here.

Legend:
Conditions in all cases: in vivo; cited from earlier work
[1] = test system: people with type 2 diabetes
[2] = test system: people with type 2 diabetes; remark: listed apart in the source
[3] = test system: people with type 2 diabetes; remark: listed apart in the source

Cn1c(=O)cc(N2CCC[C@@H](N)C2)n(Cc2ccccc2C#N)c1=O [alogliptin]
Incidence of hospitalization for heart failure versus placebo, in words [1]: numerically increased | Major adverse CV events compared with placebo, in words [1]: neutral effects

N#C[C@@H]1C[C@@H]2C[C@@H]2N1C(=O)[C@@H](N)C12CC3CC(CC(O)(C3)C1)C2 [saxagliptin]
Major adverse CV events compared with placebo, in words [2]: neutral effects

N[C@@H](CC(=O)N1CCn2c(nnc2C(F)(F)F)C1)Cc1cc(F)c(F)cc1F [sitagliptin]
Incidence of heart failure hospitalization versus placebo, in words [3]: no effect | Major adverse CV events compared with placebo, in words [3]: neutral effects
